Several values for one entry are separate records, joined by “and”; a condition that tells them apart may be missing. Equal values may be shown once.
Assay: xn = mol fraction of the nth substance listed
Settings: 100 kPa, Liquid; for viscosity: Concentric cylinders viscometry; for mass density: Vibrating tube method; for electrical conductivity: Alternating current cell with electrodes

CCCCCCCCOS(=O)(=O)[O-].CCn1cc[n+](C)c1 [1-ethyl-3-methylimidazolium octyl sulfate] + O
Settings	electrical conductivity	mass density	viscosity
293.1 K, x1 = 0.1197	–	1069.2 kg/m3	–
293.1 K, x1 = 0.1402	–	1072.6 kg/m3	–
293.1 K, x1 = 0.1605	–	1076.1 kg/m3 and 1076.2 kg/m3	–
293.1 K, x1 = 0.2632	–	1085.4 kg/m3	–
293.1 K, x1 = 0.3076	–	1087.6 kg/m3	–
293.1 K, x1 = 0.3555	–	1089.2 kg/m3	136.9 mPa·s
293.1 K, x1 = 0.4108	–	1091.1 kg/m3	154.7 mPa·s
294.1 K, x1 = 0.1402	–	1072 kg/m3	66.11 mPa·s
294.1 K, x1 = 0.1766	1 S/m	–	–
294.1 K, x1 = 0.2119	0.826 S/m and 0.828 S/m	–	–
294.1 K, x1 = 0.2632	0.585 S/m	–	–
295.1 K, x1 = 0.0803	1.81 S/m	–	–
295.1 K, x1 = 0.1402	–	1071.3 kg/m3	62.58 mPa·s
295.1 K, x1 = 0.1766	1.03 S/m	–	–
295.1 K, x1 = 0.2119	0.85 S/m and 0.852 S/m	–	–
295.1 K, x1 = 0.2632	0.606 S/m	–	–
295.1 K, x1 = 0.3555	0.387 S/m and 0.389 S/m	–	–
295.1 K, x1 = 0.4108	0.32 S/m	–	–
296.1 K, x1 = 0.1402	–	1070.6 kg/m3	59.29 mPa·s
296.1 K, x1 = 0.1605	1.18 S/m	–	–
296.1 K, x1 = 0.1766	1.05 S/m and 1.06 S/m	–	–
296.1 K, x1 = 0.2119	0.873 S/m and 0.875 S/m	–	–
296.1 K, x1 = 0.2632	0.628 S/m	–	–
296.1 K, x1 = 0.3076	0.531 S/m and 0.533 S/m	–	–
296.1 K, x1 = 0.4688	0.258 S/m	–	–
297.1 K, x1 = 0.1402	–	1069.9 kg/m3	56.2 mPa·s
297.1 K, x1 = 0.1766	1.08 S/m	–	–
297.1 K, x1 = 0.2119	0.9 S/m	–	–
297.1 K, x1 = 0.2632	0.651 S/m	–	–
298.1 K, x1 = 0.0401	2.16 S/m	–	–
298.1 K, x1 = 0.0586	2.14 S/m	–	–
298.1 K, x1 = 0.0803	1.96 S/m	–	–
298.1 K, x1 = 0.1197	1.56 S/m	1065.5 kg/m3 and 1065.9 kg/m3	46.3 mPa·s and 46.17 mPa·s
298.1 K, x1 = 0.1402	1.38 S/m	1069.3 kg/m3	53.29 mPa·s
298.1 K, x1 = 0.1605	1.25 S/m	1072.8 kg/m3 and 1072.7 kg/m3	59.39 mPa·s and 57.63 mPa·s
298.1 K, x1 = 0.1766	1.11 S/m	–	–
298.1 K, x1 = 0.2119	0.925 S/m and 0.921 S/m	–	–
298.1 K, x1 = 0.2632	0.675 S/m and 0.669 S/m	1081.9 kg/m3 and 1081.7 kg/m3	80.58 mPa·s and 82.1 mPa·s
298.1 K, x1 = 0.3076	0.573 S/m and 0.572 S/m	1084.1 kg/m3	89.42 mPa·s
298.1 K, x1 = 0.3555	0.434 S/m and 0.435 S/m	1085.8 kg/m3	104.1 mPa·s and 104 mPa·s
298.1 K, x1 = 0.4108	0.358 S/m and 0.355 S/m	1087.7 kg/m3	118 mPa·s
298.1 K, x1 = 0.4688	0.287 S/m and 0.254 S/m	–	–
298.1 K, x1 = 0.5001	0.241 S/m and 0.236 S/m	–	–
303.1 K, x1 = 0.1605	–	1069.3 kg/m3	45.8 mPa·s
303.1 K, x1 = 0.2632	–	1078.5 kg/m3	62.15 mPa·s
303.1 K, x1 = 0.3076	–	1080.7 kg/m3	69.23 mPa·s
303.1 K, x1 = 0.3555	–	1082.4 kg/m3	80.49 mPa·s
303.1 K, x1 = 0.4108	–	1084.3 kg/m3	91.61 mPa·s
303.1 K, x1 = 0.5001	0.295 S/m	–	–
308.1 K, x1 = 0.1605	–	1065.9 kg/m3	35.89 mPa·s
308.1 K, x1 = 0.2632	–	1075 kg/m3	48.72 mPa·s
308.1 K, x1 = 0.3076	–	1077.2 kg/m3	54.47 mPa·s
308.1 K, x1 = 0.3555	–	1079 kg/m3	63.27 mPa·s
308.1 K, x1 = 0.4108	–	1080.9 kg/m3	72.28 mPa·s
313.1 K, x1 = 0.1197	–	1055.4 kg/m3	23.09 mPa·s
313.1 K, x1 = 0.1605	–	1062.4 kg/m3	28.53 mPa·s
313.1 K, x1 = 0.2632	–	1072.9 kg/m3	40.23 mPa·s
313.1 K, x1 = 0.3076	–	1072.2 kg/m3	43.26 mPa·s
313.1 K, x1 = 0.3555	–	1075.6 kg/m3	50.46 mPa·s
313.1 K, x1 = 0.4108	–	1077.6 kg/m3	57.88 mPa·s
313.1 K, x1 = 0.5001	0.42 S/m	–	–
318.1 K, x1 = 0.3076	–	1070.1 kg/m3	36.02 mPa·s
318.1 K, x1 = 0.3555	–	1072.2 kg/m3	40.79 mPa·s
318.1 K, x1 = 0.4108	–	1074.2 kg/m3	46.97 mPa·s
323.1 K, x1 = 0.3555	–	1068.8 kg/m3	33.03 mPa·s
323.1 K, x1 = 0.4108	–	1070.8 kg/m3	38.58 mPa·s
323.1 K, x1 = 0.5001	0.58 S/m	–	–

From the NIST ThermoML archive (doi:10.1016/j.jct.2014.04.016)
